Measured values: patent publication US20030211458A1, “Measurements of enzymatic activity in a single, individual cell in population” (priority 2000, published 2003)

Legend:
[1] = tested on: intracellular nonspecific esterase; assay: Individual-cell sequential FDA hydrolysis (KMAPP, VMAX) on CS-S cytometer; type: cell-based, human; conditions: different cell carriers
[2] = tested on: intracellular nonspecific esterase; assay: Flow cytometer (FACSCalibur) population average KMAPP and VMAX of FDA hydrolysis; type: cell-based, human
Description: Methods Cell Biol (1994) 41: 469-508. Four means of intracellular fluorescence intensities (IFI) were calculated from data accumulated along four time gates of 25 second each and 30 seconds apart, from which V0 was extracted. This process was sequentially performed on five different aliquots of cells (50 μl, at a concentration of 6×10^6 cells/ml) each exposed to different FDA concentrations (0.3, 0.6, 1.2, 1.8 and 2.4 μM. Introducing these average V0 in values Eq. 8 yielded population average KMAPP and VMAX of 2.16 μM and 4.32 μM and 6.6 and 5.83 in cells incubated with and without PHA. It should be noted that while KMAPP is an intrinsic value, VMAX depends on the optoelelctronic arrangement under use. Thus, obviously, at the population level, measurements carried out both on FC and average calculated from individual cell KMAPP measurement data yield similar KMAPP values, indicating the validity of the invented methodology.

[3] = tested on: intracellular nonspecific esterase; assay: Individual-cell sequential FDA hydrolysis (KMAPP, VMAX) on CS-S cytometer; type: cell-based, human; conditions: for FI rate ratios of the same trapped cells sequentially exposed to different FDA concentrations: same cell carrier; for average KMAPP / average VMAX: average of individual cells
Description: Measuring Intracellular Nonspecific Esterase Activity in a Single Lymphocyte Using Fluorescein-Diacetate (FDA) as the Substrate.
Phytohemagglutinin PHA (HA15, Murex Biotech) was reconstituted in 5 ml of double-distilled water and further diluted ten times. For stimulation, 10 μl of this solution was added to a 90 μl cell suspension (7×10^6 cells/ml).
A staining solution of 3.6 μM FDA (Riedel-de Haen Ag. Seelze-Hanover) in Dulbecco Phosphate Buffered Saline (PBS, Biological Industries) was prepared as follows: 50 mg of FDA was dissolved in 5 ml of DMSO (Sigma). 7.5 μl of this solution was added to 50 ml PBS. For 0.6, 1.2 and 2.4 μM the solution was further diluted in PBS.
30 Heparinized blood (30 ml), was taken from healthy, normal volunteers. The procedure for separating the PBMC has been described in detail, elsewhere [Sunray M, Deutsch M, Kaufman M, Tirosh R, Weinreb A, and Rachmani H. Cell Activation influences cell staining linetics, Spectrochimica Acta A (1997) 53:1645-1653]. Shortly after removing the iron absorbing cells, the remaining cells are layered on a two-layer (100% and 80%) cell density gradient (Ficoll Paque, Pharmacia 1.077 g/ml) and centrifuged. The cells accumulated at the interface between the two Ficoll layers, were collected and kept at 37° C. in 5 ml of enriched culture medium overnight. The next day the PBMC were washed and resuspended in PBS at a final concentration of 7·10^6 cells/ml. More than 70% of the cells were defined as T lymphocytes and viability, which was determined using eosin, was always higher than 90%.
Freshly prepared PBMC (7·10^6 cells/ml) were incubated at 37° C., 5% CO2 with 5 μgr/ml PHA for 30 minutes. PBMC controls were incubated without PHA under identical conditions.
The multiparametric, computerized, discrete cytometer CS-S used in performing this example was described in detail in the above specified US Patents. Its central feature is a cell carrier (CC) incorporating a 100×100 dimensional array having a conical cross-section with an upper opening of ˜7 μm and lower opening of ·4 μm, each approximately 20 μm apart, in which individual cells are trapped. The cell carrier is mounted on a computer-controlled stage that enables repeated multi-scanning of the same cells.
Loading the cells in wells traps on the Cell Carrier (CC) was carried out, as described in Deutsch M, and Weinreb A., Apparatus for High Precision Repetitive Sequential Optical Measurement of Living Cells, Cytometry (1994) 16: 214-226. An aliquot of 80 μl of unstained cell suspension (7×10^6 cells/ml) was loaded on the CC. Initial scanning was then performed in order to detect individual cell background scattering and auto-fluorescence. This undesired signal is recorded per measurement location and subtracted from the total emission signal (after exposure) in order to obtain the correct fluorescence signal.
For fluorescence intensity FI(t) measurements, trapped cells on the CC were sequentially exposed to increasing concentrations of FDA in PBS staining solutions.
Following background measurement, the volume of PBS, which covers the cells, was pumped out and the following procedure was carried out:
At time point zero, 40 μl of the lowest substrate concentration solution was applied on top of the trapped cells and a pre-chosen cell field was sequentially scanned 6 times. This yielded 6 accurately timed FI data points per each individual cell at a given dye concentration. FI is usually measured utilizing epi-fluoescence optical arrangement which permits the differentiation between the excitation energy and the emitted fluorescence energy to be detected by photomultipliers, CCD detectors etc.
The above procedure is repeated for each different substrate solution used in the experiment.
This yielded six FI data points for each individual cell, per substrate concentration, from which V was extracted and the individual cell KMAPP and VMAX values were calculated. […]

[4] = tested on: Peripheral blood lymphocytes; conditions: individual cell, FDA staining before and after incubation at 37° C., FIG. 7
Description: Peripheral blood lymphocytes were loaded on a CC, and exposed to FDA, after which individual FI(t) was measured. […] At the end of incubation, the same cells were again exposed to the same FDA concentration and FI(t) measurements were again performed.
Since cells are in general heterogeneous, one would expect a distribution of FI(t) rates (slopes) in the same experiment. […] Thus, in such an experimental procedure, the determining parameter is the ratio between the initial and the final slopes, namely, the ratios between FI(t) slopes prior to and after incubation (with and without drugs), as well as ratios of individual KMAPP and VMAX prior to and after incubation.

[5] = 1.2/0.6 μM FDA (concentration ratio 2.0)
[6] = 2.4/0.6 μM FDA (concentration ratio 4.0)
[7] = 3.6/0.6 μM FDA (concentration ratio 6.0)
[8] = FDA substrate, cells incubated without PHA
[9] = FDA substrate, cells incubated without PHA, CS-S
[10] = PHA-incubated vs control cells, CS-S

CC(=O)Oc1ccc2c(c1)Oc1cc(OC(C)=O)ccc1C21OC(=O)c2ccccc21 [FDA, Fluorescein-Diacetate]
FI rate ratios of cells parallely exposed to different FDA concentrations [1, 5]: 1.9 | FI rate ratios of cells parallely exposed to different FDA concentrations [1, 6]: 4.4 | FI rate ratios of cells parallely exposed to different FDA concentrations [1, 7]: 6.2 | population average KMAPP [2, 8]: 4.32 µM | population average VMAX [2, 8]: 5.83 | FI rate ratios of the same trapped cells sequentially exposed to different FDA concentrations [3, 5]: 2.1 | FI rate ratios of the same trapped cells sequentially exposed to different FDA concentrations [3, 6]: 3.6 | FI rate ratios of the same trapped cells sequentially exposed to different FDA concentrations [3, 7]: 5.6 | average KMAPP [3, 9]: 4.88 µM | average VMAX [3, 9]: 695 intensity/sec

OO [H2O2, hydrogen peroxide]
ratio pre to post treatment slopes (FI rate), control cells relative to treated cells [4]: double

Phytohemagglutinin [PHA]
population average VMAX ([2]; cells incubated with PHA): 6.6 | population average KMAPP ([2]; cells incubated with PHA, FDA 0.3-2.4 μM): 2.16 µM | decrease in KMAPP compared to the control [3, 10]: 69% | decrease in VMAX compared to the control [3, 10]: 6% | average KMAPP ([3]; cells incubated with PHA, FDA substrate 0.6-3.6 μM, CS-S): 1.50 µM | average VMAX ([3]; cells incubated with PHA, FDA substrate, CS-S): 652 intensity/sec
